Assay results reported in US20030100997A1, “Matrix assays in genomically indexed cells” (priority 2001, published 2003).
“And” between values parts separate entries of the source, which are not always exact repeats. Identical values can stand only once.

What was measured:
Format in all cases: cell-based
[1] = tested on: PANC-1; assay: calcium mobilization (FLIPR, Fluo-3) in PANC-1
Method: (§1) The above panel of 10 cell lines was plated in 96-well black, clear-bottomed tissue culture-treated plates (Molecular Devices, Sunnyvale, Calif. with the number of cells per well indicated in Table 1. Cells were maintained overnight at 37° C., 5%CO2 in a humidified incubator. Media was removed and the cells were then incubated in Hanks balanced salt solution (Invitrogen, Carlsbad Calif.)/10 mM HEPES pH 7.4 containing 0.04% Pluronic Acid (Molecular Probes, Eugene Oreg.) and 4 uM Fluor-3AM (Molecular Probes, Eugene Oreg.) for one hour at 37° C.
(§2) Antagonists were added to the indicated concentration and the cells incubated at room temperature for 20 minutes. After 10 seconds of baseline read collection, agonists were added on a FLIPR instrument (Molecular Devices, Sunnyvale, Calif.) and data were collected for a total of 3.5 minutes. The fluorescence emission was normalized to initial intensity and the sum of the signal over the entire time period was exported and used for determining percent of control responses using the following formula: Percent of Control=(Sample-unstimulated cells)/(ionomycin treated cells-unstimulated cells). […] Calcium mobilization was measured as described above. […]

[2] = tested on: SaOS-2; assay: calcium mobilization (FLIPR, Fluo-3) in SaOS-2; settings: for calcium mobilization, Percent of Control: SaOS-2; for effect on responses to bradykinin in SaOS-2 cells: antagonist at 10 uM
Method: as §1, §2

[3] = tested on: T-47D; assay: calcium mobilization (FLIPR, Fluo-3) in T-47D; settings: for calcium mobilization, Percent of Control: T-47D; for effect on the response to ionomycin in T-47D cells: antagonist at 10 uM, cells do not express the H1 receptor
Method: as §1
(§3) Antagonists were added to the indicated concentration and the cells incubated at room temperature for 20 minutes. After 10 seconds of baseline read collection, agonists were added on a FLIPR instrument (Molecular Devices, Sunnyvale, Calif.) and data were collected for a total of 3.5 minutes. The fluorescence emission was normalized to initial intensity and the sum of the signal over the entire time period was exported and used for determining percent of control responses using the following formula: Percent of Control=(Sample-unstimulated cells)/(ionomycin treated cells-unstimulated cells). […] Calcium mobilization was measured as described above.
(§4) Expression of the target H1 receptor was measured by RT-PCR of mRNA samples from each cell line, as follows.

[4] = tested on: NCI-H460; assay: calcium mobilization (FLIPR, Fluo-3) in NCI-H460
Method: as §1, §2

[5] = tested on: NTera-2; assay: calcium mobilization (FLIPR, Fluo-3) in NTera-2; settings: for calcium mobilization, Percent of Control: NTera-2; for effect on the response to ionomycin in NTera-2 cells: antagonist at 10 uM, cells do not express the H1 receptor
Method: as §1, §2

[6] = tested on: COLO320; assay: calcium mobilization (FLIPR, Fluo-3) in COLO320
Method: as §1, §3, §4

[7] = tested on: Jurkat; assay: calcium mobilization (FLIPR, Fluo-3) in Jurkat
Method: as §1, §2

[8] = tested on: panel of 10 cell lines; assay: calcium mobilization profile across the panel of 10 cell lines; settings: for effect on calcium responses to histamine: histamine-induced calcium mobilization, panel of 10 cell lines, antagonist 1 or 10 uM
Method: as §1, §3, §4

[9] = tested on: HBL-100; assay: calcium mobilization (FLIPR, Fluo-3) in HBL-100; settings: for calcium mobilization, Percent of Control: HBL-100; for effect on responses to bradykinin in HBL-100 cells: antagonist at 10 uM
Method: as §1, §2

[10] = tested on: PC-3; assay: calcium mobilization (FLIPR, Fluo-3) in PC-3
Method: as §1, §2

[11] = tested on: SK-Hep-1; assay: calcium mobilization (FLIPR, Fluo-3) in SK-Hep-1; settings: agonist alone (buffer), 10 uM, 100 = 10 uM ionomycin
Method: as §1, §3

[12] = response to 10 uM ionomycin after antagonist 10 uM
[13] = response to 1 uM bradykinin after antagonist 10 uM
[14] = response to 10 uM histamine after antagonist 10 uM, 20 min
[15] = agonist alone (buffer), 10 uM, 100 = 10 uM ionomycin

| SMILES | calcium mobilization, Percent of Control [1, 12] | calcium mobilization, Percent of Control [2, 13] | calcium mobilization, Percent of Control [2, 12] | effect on responses to bradykinin in SaOS-2 cells [2] | calcium mobilization, Percent of Control [3, 12] | effect on the response to ionomycin in T-47D cells [3] | calcium mobilization, Percent of Control [4, 12] | calcium mobilization, Percent of Control [5, 14] | calcium mobilization, Percent of Control [5, 12] | effect on the response to ionomycin in NTera-2 cells [5] | calcium mobilization, Percent of Control [1, 15] | calcium mobilization, Percent of Control [2, 15] | calcium mobilization, Percent of Control [3, 15] | calcium mobilization, Percent of Control [4, 15] | calcium mobilization, Percent of Control [5, 15] | calcium mobilization, Percent of Control [6, 15] | calcium mobilization, Percent of Control [7, 15] | calcium mobilization, Percent of Control [9, 15] | calcium mobilization, Percent of Control [11] | calcium mobilization, Percent of Control [10, 15] | other results |
| --- | --- | --- | --- | --- | --- | --- | --- | --- | --- | --- | --- | --- | --- | --- | --- | --- | --- | --- | --- | --- | --- |
| CN(C)CCC(c1ccc(Cl)cc1)c1ccccn1 (stereo not shown) [Compound C1PhAm, chlorpheniramine] | 101% of Control and 104% of Control | 29% of Control and 23% of Control | 96% of Control and 112% of Control | does not | 102% of Control | does not affect the ionomycin response | 73% of Control and 96% of Control | 0% of Control | 99% of Control and 119% of Control | does not affect the ionomycin response |  |  |  |  |  |  |  |  |  |  | calcium mobilization, Percent of Control [6, 13]: 0% of Control; calcium mobilization, Percent of Control [6, 12]: 98% of Control and 95% of Control; calcium mobilization, Percent of Control [7, 13]: 12% of Control and 10% of Control; calcium mobilization, Percent of Control [7, 14]: 8% of Control and 5% of Control; calcium mobilization, Percent of Control [7, 12]: 70% of Control and 123% of Control; effect on calcium responses to bradykinin ([8]; bradykinin-induced, antagonist at 10 uM): did not inhibit bradykinin responses; effect on calcium responses to histamine [8]: had similar effects to Compound 1; calcium mobilization, Percent of Control [9, 13]: 11% of Control; calcium mobilization, Percent of Control [9, 14]: 0% of Control; calcium mobilization, Percent of Control [9, 12]: 87% of Control; effect on responses to bradykinin in HBL-100 cells [9]: does not; calcium mobilization, Percent of Control [10, 13]: 0% of Control; calcium mobilization, Percent of Control [10, 14]: 0% of Control; calcium mobilization, Percent of Control [10, 12]: 104% of Control |
| COc1ccc2c(c1)CC[C@@H]1[C@@H]2CC[C@]2(C)[C@@H](NCCCCCCN3C(=O)C=CC3=O)CC[C@@H]12 [Compound U73122, U73122] | 89% of Control | 2% of Control | 71% of Control | inhibits the responses | 88% of Control | partially inhibit the response to ionomycin | 102% of Control | 2% of Control | 72% of Control | partially inhibit the response to ionomycin |  |  |  |  |  |  |  |  |  |  | calcium mobilization, Percent of Control [1, 13]: 0% of Control; calcium mobilization, Percent of Control [1, 14]: 2% of Control; calcium mobilization, Percent of Control [2, 14]: 0% of Control; calcium mobilization, Percent of Control [3, 13]: 1% of Control; calcium mobilization, Percent of Control [3, 14]: 1% of Control; calcium mobilization, Percent of Control [4, 13]: 1% of Control; calcium mobilization, Percent of Control [4, 14]: 2% of Control; calcium mobilization, Percent of Control [5, 13]: 1% of Control; calcium mobilization, Percent of Control [6, 13]: 5% of Control; calcium mobilization, Percent of Control [6, 14]: 2% of Control; calcium mobilization, Percent of Control [6, 12]: 73% of Control; calcium mobilization, Percent of Control [7, 13]: 52% of Control; calcium mobilization, Percent of Control [7, 14]: 2% of Control; calcium mobilization, Percent of Control [7, 12]: 52% of Control; specificity as inhibitor of histamine signaling through the H1 receptor ([8]; compared with chlorpheniramine): less specific than chlorpheniramine; effect on calcium responses to histamine [8]: inhibit responses to histamine; effect on responses to bradykinin in HBL-100 cells [9]: inhibits the responses; calcium mobilization, Percent of Control [10, 13]: 0% of Control; calcium mobilization, Percent of Control [10, 14]: 0% of Control; calcium mobilization, Percent of Control [10, 12]: 100% of Control |
| CNCCc1cnc[nH]1 [N-a-his, N-alphamethyl histamine] |  |  |  |  |  |  |  |  |  |  | 22% of Control | 11% of Control | 0% of Control | 30% of Control | 2% of Control | 1% of Control | 2% of Control | 16% of Control | 12% of Control | 1% of Control | activity in cells that do not express the H1 receptor target ([8]; agonist example, 10 uM): Neither Compound 1 nor histamine were active |
| C[C@@H](N)Cc1c[nH]cn1 [R-a-his, R-alphamethyl histamine] |  |  |  |  |  |  |  |  |  |  | 0% of Control | 0% of Control | 0% of Control | 0% of Control | 2% of Control | 1% of Control | 2% of Control | −1% of Control | −1% of Control | 0% of Control | pattern of calcium responses compared with histamine and bradykinin ([8]; agonist example, 10 uM, 10 cell lines): resembles neither bradykinin nor histamine |
| NCCc1c[nH]cn1 [histamine] |  |  |  |  |  |  |  |  |  |  | 26% of Control and 30% of Control | 13% of Control and 18% of Control |  | 32% of Control and 24% of Control | 0% of Control |  |  | 18% of Control and 27% of Control | 19% of Control | 1% of Control | activity in cells that do not express the H1 receptor target ([8]; agonist example, 10 uM): Neither Compound 1 nor histamine were active |
| C[C@H](CCC(=O)O)C[C@H](C)C[C@H](C)C(=O)/C=C(\O)[C@H](C)C[C@H](C)C/C=C/[C@@H](C)[C@@H](O)[C@@H](C)[C@@H](O)C[C@@H]1CC[C@@](C)([C@H]2CC[C@@](C)([C@@H](C)O)O2)O1 [ionomycin] |  |  |  |  |  |  |  |  |  |  | 100% of Control | 100% of Control | 100% of Control | 100% of Control | 100% of Control | 100% of Control | 100% of Control | 100% of Control | 100% of Control | 100% of Control |  |
